The source of these data is patent US20130324412A1, “N-ALKOXYAMIDES OF 6-(SUBSTITUTED PHENYL)-4-AMINOPICOLINATES AND 2-(SUBSTITUTED PHENYL)-6-AMINO-4-PYRIMIDINECARBOXYLATES AND THEIR USE AS SELECTIVE HERBICIDES FOR CROPS” (DOW AGROSCIENCES LLC, priority 2009, published 2013).

The test system of assay [1] is velvetleaf (Abutilon theophrasti). As to the kind of experiment: General postemergence herbicidal activity, velvetleaf. The note with it: post-emergence, 336 h, 70 g ai/ha, postemergence, after 14 d, 0 = no injury, 100 = complete kill, read-out: ABUTH % Visual Injury. In kind it is in vivo. In short, it runs like this: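 Greenhouse plants at first to second true leaf stage sprayed overhead at 187 L/ha in acetone/DMSO with crop oil concentrate and surfactant, at a high rate plus ½× to 1/16× serial dilutions. Injury rated visually after 14 d against solvent-blank controls, 0 (none) to 100% (complete kill).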

Assay [2] deals with wild buckwheat (Polygonum convululus). As to the kind of experiment: Postemergence herbicidal activity in corn, wild buckwheat. In kind it is in vivo. As to conditions: corn test, visual rating after 21 d, probit analysis, dose to kill or control 80 percent. How it is done: Seeds of corn and the desired weed species were planted in Sun Gro MetroMix 360 planting mixture, which typically has a pH of 6.0 to 6.8 and an organic matter content of about 30 percent, in plastic pots with a surface area of 95 cm^2. When required to ensure good germination and healthy plants, a fungicide treatment and/or other chemical or physical treatment was applied. The plants were grown for 7-21 d in a greenhouse with an approximate 15-h photoperiod which was maintained at about 23-29° C. during the day and 22-28° C. during the night. Nutrients and water were added on a regular basis and supplemental lighting was provided with overhead metal halide 1000-Watt lamps as necessary. The corn plants were utilized for testing when they reached the second true leaf stage. The weed species were utilized at the first or second true leaf stage.
A weighed amount, determined by the highest rate to be tested, of each test compound was dissolved in 4 mL of a 97:3 v/v mixture of acetone and DMSO to obtain concentrated stock solutions. […] The concentrated stock solutions obtained were diluted with 20 mL of an aqueous mixture containing acetone, water, isopropyl alcohol, DMSO, Atplus 411F crop oil concentrate, and Triton X-155 surfactant in a 48.5:39:10:1.5:1.0:0.02 v/v ratio to obtain spray solutions containing the highest application rates. […]
The treated plants and control plants were placed in a greenhouse as described above and watered by sub-irrigation to prevent wash-off of the test compounds. After 21 d, the condition of the test plants as compared with that of the untreated plants was determined visually and scored on a scale of 0 to 100 percent where 0 corresponds to no injury and 100 corresponds to complete kill. […]

Bounds are passed on as bounds.

As to `CONC(=O)c1nc(-c2ccc(Cl)c(OC)c2F)cc(N)c1Cl` [Compound 2, 4-Amino-3-chloro-6-(4-chloro-2-fluoro-3-methoxyphenyl)-N-methoxypicolinamide], in assay [1], the pest or weed control at 70 g/ha was 100%. The “POLCO GR80” value in assay [2] is 6 g ai/ha.

As for `COc1c(Cl)ccc(-c2cc(N)c(Cl)c(C(=O)NOCC(C)C)n2)c1F` [Compound 1, 4-amino-3-chloro-6-(4-chloro-2-fluoro-3-methoxyphenyl)-N-(2-methylpropoxy)picolinamide], the pest or weed control at 70 g/ha in assay [1] worked out at 100%. Further, the “POLCO GR80” value in assay [2] is reported as below 4 g ai/ha.
